Measurements published in publication PMC9067983, “Identification of highly selective type II kinase inhibitors with chiral peptidomimetic tails” (Journal of Enzyme Inhibition and Medicinal Chemistry, 2022).
Where a SMILES comes first, the peptide text is derived from it. [ ]: non-standard residue; d: D form. The star is where a group is joined. X1 = Cc1ccc(Nc2ncc3c(n2)N(C)C(=O)N(c2cc(C(=O)*)ccc2C)C3)cn1; Pip = O=C(O)[C@@H]1CCCCN1; Aze = O=C(O)[C@@H]1CCN1; Ac4c = NC1(C(=O)O)CCC1; Ac3c = NC1(C(=O)O)CC1; Aib = CC(C)(N)C(=O)O

How the values were obtained:
[1] = biological target: T1, c-Src (Homo sapiens, UniProt P12931); assay: In vitro kinase assay (IC50); format: biochemical
T1 construct: purchased Reaction Biology Corp
T1 sequence (P12931 whole entry): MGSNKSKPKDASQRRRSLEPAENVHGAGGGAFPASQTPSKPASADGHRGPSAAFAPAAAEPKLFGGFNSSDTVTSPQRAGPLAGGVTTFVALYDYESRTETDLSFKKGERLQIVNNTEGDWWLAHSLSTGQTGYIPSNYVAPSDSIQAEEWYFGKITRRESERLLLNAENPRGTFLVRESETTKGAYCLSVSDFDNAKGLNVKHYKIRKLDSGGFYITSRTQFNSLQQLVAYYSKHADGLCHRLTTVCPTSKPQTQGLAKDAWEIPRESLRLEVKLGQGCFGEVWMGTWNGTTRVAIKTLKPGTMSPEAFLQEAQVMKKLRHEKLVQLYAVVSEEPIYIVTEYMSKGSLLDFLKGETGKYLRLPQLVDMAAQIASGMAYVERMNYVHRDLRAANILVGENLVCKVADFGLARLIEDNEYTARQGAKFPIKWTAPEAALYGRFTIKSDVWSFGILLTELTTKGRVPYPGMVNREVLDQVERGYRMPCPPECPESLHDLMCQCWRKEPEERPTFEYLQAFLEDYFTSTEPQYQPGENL
Experimental: (§1) Full panel kinase profiling and kinase IC50 measurement were performed by using Reaction Biology Corp. (San Diego, USA).

[2] = biological target: T2, Lck (Homo sapiens, UniProt P06239); assay: In vitro kinase assay (IC50); format: biochemical
T2 construct: purchased Reaction Biology Corp
T2 sequence (P06239 whole entry): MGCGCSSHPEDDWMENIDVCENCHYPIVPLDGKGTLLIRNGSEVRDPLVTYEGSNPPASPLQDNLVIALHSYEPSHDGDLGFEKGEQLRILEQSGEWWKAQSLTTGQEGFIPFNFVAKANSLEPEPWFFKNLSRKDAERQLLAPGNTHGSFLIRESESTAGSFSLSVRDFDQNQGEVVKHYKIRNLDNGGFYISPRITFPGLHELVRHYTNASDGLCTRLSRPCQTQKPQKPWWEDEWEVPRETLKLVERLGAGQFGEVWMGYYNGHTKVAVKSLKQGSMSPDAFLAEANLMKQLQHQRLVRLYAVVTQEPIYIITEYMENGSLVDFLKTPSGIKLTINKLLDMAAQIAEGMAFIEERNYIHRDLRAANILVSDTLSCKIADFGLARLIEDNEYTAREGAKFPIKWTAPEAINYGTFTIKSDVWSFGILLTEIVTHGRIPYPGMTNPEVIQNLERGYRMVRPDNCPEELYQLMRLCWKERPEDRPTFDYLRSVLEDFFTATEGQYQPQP
Experimental: as §1

In the case of `Cc1ccc(Nc2ncc3c(n2)N(C)C(=O)N(c2cc(C(=O)N[C@@H](C(=O)N4CCC[C@@H]4C(=O)NC(C)(C)C(=O)N[C@H](CC(C)C)C(=O)N(C)C)C(C)C)ccc2C)C3)cn1` [7c, (R)-N-(1-(((R)-1-(dimethylamino)-4-methyl-1-oxopentan-2-yl)amino)-2-methyl-1-oxopropan-2-yl)-1-((4-methyl-3-(1-methyl-7-((6-methylpyridin-3-yl)amino)-2-oxo-1,4-dihydropyrimido[4,5-d]pyrimidin-3(2H)-yl)benzoyl)-D-valyl)pyrrolidine-2-carboxamide] (X1-[dV][dP][Aib][dL]-NMe2), the IC50 [1] is reported as 0.735 µM, the IC50 [2] is reported as 0.211 µM and the “decrease of Lck/c-Src selectivity compared to 7a” value [2] is reported as > 10 fold.

`Cc1ccc(Nc2ncc3c(n2)N(C)C(=O)N(c2cc(C(=O)N[C@H](C(=O)N4CCC[C@H]4C(=O)NC4(C(=O)N[C@@H](CC(C)C)C(=O)N(C)C)CC4)C(C)C)ccc2C)C3)cn1` [7d, (S)-N-(1-(((S)-1-(dimethylamino)-4-methyl-1-oxopentan-2-yl)carbamoyl)cyclopropyl)-1-((4-methyl-3-(1-methyl-7-((6-methylpyridin-3-yl)amino)-2-oxo-1,4-dihydropyrimido[4,5-d]pyrimidin-3(2H)-yl)benzoyl)-L-valyl)pyrrolidine-2-carboxamide] (X1-VP[Ac3c]L-NMe2) gave an IC50 [1] of 0.555 µM and an IC50 [2] of 0.049 µM.

`Cc1ccc(Nc2ncc3c(n2)N(C)C(=O)N(c2cc(C(=O)N[C@H](C(=O)N4CCC[C@@H]4C(=O)NC4(C(=O)N[C@@H](CC(C)C)C(=O)N(C)C)CC4)C(C)C)ccc2C)C3)cn1` [7e, (R)-N-(1-(((S)-1-(dimethylamino)-4-methyl-1-oxopentan-2-yl)carbamoyl)cyclopropyl)-1-((4-methyl-3-(1-methyl-7-((6-methylpyridin-3-yl)amino)-2-oxo-1,4-dihydropyrimido[4,5-d]pyrimidin-3(2H)-yl)benzoyl)-L-valyl)pyrrolidine-2-carboxamide] (X1-V[dP][Ac3c]L-NMe2) gave an IC50 [1] of 2.08 µM and an IC50 [2] of 0.129 µM.

`Cc1ccc(Nc2ncc3c(n2)N(C)C(=O)N(c2cc(C(=O)N[C@H](C(=O)N4CCC[C@H]4C(=O)NC4(C(=O)N[C@@H](CC(C)C)C(=O)N(C)C)CCC4)C(C)C)ccc2C)C3)cn1` [7f, (S)-N-(1-(((S)-1-(dimethylamino)-4-methyl-1-oxopentan-2-yl)carbamoyl)cyclobutyl)-1-((4-methyl-3-(1-methyl-7-((6-methylpyridin-3-yl)amino)-2-oxo-1,4-dihydropyrimido[4,5-d]pyrimidin-3(2H)-yl)benzoyl)-L-valyl)pyrrolidine-2-carboxamide] (X1-VP[Ac4c]L-NMe2) was tested, and the IC50 [1] was 0.658 µM and the IC50 [2] was 0.0275 µM.

For `Cc1ccc(Nc2ncc3c(n2)N(C)C(=O)N(c2cc(C(=O)N[C@H](C(=O)N4CCC[C@H]4C(=O)NCC(=O)N[C@@H](CC(C)C)C(=O)N(C)C)C(C)C)ccc2C)C3)cn1` [7g, (S)-N-(2-(((S)-1-(dimethylamino)-4-methyl-1-oxopentan-2-yl)amino)-2-oxoethyl)-1-((4-methyl-3-(1-methyl-7-((6-methylpyridin-3-yl)amino)-2-oxo-1,4-dihydropyrimido[4,5-d]pyrimidin-3(2H)-yl)benzoyl)-L-valyl)pyrrolidine-2-carboxamide] (X1-VPGL-NMe2), the IC50 [1] was 1.37 µM and the IC50 [2] was 0.0402 µM.

For `Cc1ccc(Nc2ncc3c(n2)N(C)C(=O)N(c2cc(C(=O)N[C@H](C(=O)N4CCC[C@@H]4C(=O)NCC(=O)N[C@@H](CC(C)C)C(=O)N(C)C)C(C)C)ccc2C)C3)cn1` [7h, (R)-N-(2-(((S)-1-(dimethylamino)-4-methyl-1-oxopentan-2-yl)amino)-2-oxoethyl)-1-((4-methyl-3-(1-methyl-7-((6-methylpyridin-3-yl)amino)-2-oxo-1,4-dihydropyrimido[4,5-d]pyrimidin-3(2H)-yl)benzoyl)-L-valyl)pyrrolidine-2-carboxamide] (X1-V[dP]GL-NMe2), the IC50 [1] was 1.74 µM and the IC50 [2] was 0.0644 µM.

`Cc1ccc(Nc2ncc3c(n2)N(C)C(=O)N(c2cc(C(=O)N[C@H](C(=O)N4CCC[C@H]4C(=O)N[C@@H](Cc4ccccc4)C(=O)N[C@@H](CC(C)C)C(=O)N(C)C)C(C)C)ccc2C)C3)cn1` [7i, (S)-N-((S)-1-(((S)-1-(dimethylamino)-4-methyl-1-oxopentan-2-yl)amino)-1-oxo-3-phenylpropan-2-yl)-1-((4-methyl-3-(1-methyl-7-((6-methylpyridin-3-yl)amino)-2-oxo-1,4-dihydropyrimido[4,5-d]pyrimidin-3(2H)-yl)benzoyl)-L-valyl)pyrrolidine-2-carboxamide] (X1-VPFL-NMe2) was tested, and the IC50 [1] was 0.123 µM and the IC50 [2] was 0.0615 µM.

Work on `Cc1ccc(Nc2ncc3c(n2)N(C)C(=O)N(c2cc(C(=O)N[C@H](C(=O)N4CCCC[C@H]4C(=O)NC(C)(C)C(=O)N[C@@H](CC(C)C)C(=O)N(C)C)C(C)C)ccc2C)C3)cn1` [7j, (S)-N-(1-(((S)-1-(dimethylamino)-4-methyl-1-oxopentan-2-yl)amino)-2-methyl-1-oxopropan-2-yl)-1-((4-methyl-3-(1-methyl-7-((6-methylpyridin-3-yl)amino)-2-oxo-1,4-dihydropyrimido[4,5-d]pyrimidin-3(2H)-yl)benzoyl)-L-valyl)piperidine-2-carboxamide] (X1-V[Pip][Aib]L-NMe2) yielded an IC50 [1] of 0.586 µM and an IC50 [2] of 0.018 µM.

With `Cc1ccc(Nc2ncc3c(n2)N(C)C(=O)N(c2cc(C(=O)N[C@H](C(=O)N4CC[C@H]4C(=O)NC(C)(C)C(=O)N[C@@H](CC(C)C)C(=O)N(C)C)C(C)C)ccc2C)C3)cn1` [7k, (S)-N-(1-(((S)-1-(dimethylamino)-4-methyl-1-oxopentan-2-yl)amino)-2-methyl-1-oxopropan-2-yl)-1-((4-methyl-3-(1-methyl-7-((6-methylpyridin-3-yl)amino)-2-oxo-1,4-dihydropyrimido[4,5-d]pyrimidin-3(2H)-yl)benzoyl)-L-valyl)azetidine-2-carboxamide] (X1-V[Aze][Aib]L-NMe2) the IC50 [1] was 0.921 µM, the IC50 [2] was 0.302 µM and the “decrease of Lck/c-Src selectivity compared to 7a” value [2] was > 10 fold.

Work on `Cc1ccc(Nc2ncc3c(n2)N(C)C(=O)N(c2cc(C(=O)N[C@@H](Cc4ccccc4)C(=O)N4CCC[C@H]4C(=O)NC(C)(C)C(=O)N[C@H](C(=O)N(C)C)C(C)C)ccc2C)C3)cn1` [7l, (S)-N-(1-(((S)-1-(dimethylamino)-3-methyl-1-oxobutan-2-yl)amino)-2-methyl-1-oxopropan-2-yl)-1-((4-methyl-3-(1-methyl-7-((6-methylpyridin-3-yl)amino)-2-oxo-1,4-dihydropyrimido[4,5-d]pyrimidin-3(2H)-yl)benzoyl)-L-phenylalanyl)pyrrolidine-2-carboxamide] (X1-FP[Aib]V-NMe2) yielded an IC50 [1] of 1.74 µM and an IC50 [2] of 0.155 µM.

Compound `Cc1ccc(Nc2ncc3c(n2)N(C)C(=O)N(c2cc(C(=O)N[C@@H](C)C(=O)N4CCC[C@H]4C(=O)NC(C)(C)C(=O)N[C@H](C(=O)N(C)C)C(C)C)ccc2C)C3)cn1` [7m, (S)-N-(1-(((S)-1-(dimethylamino)-3-methyl-1-oxobutan-2-yl)amino)-2-methyl-1-oxopropan-2-yl)-1-((4-methyl-3-(1-methyl-7-((6-methylpyridin-3-yl)amino)-2-oxo-1,4-dihydropyrimido[4,5-d]pyrimidin-3(2H)-yl)benzoyl)-L-alanyl)pyrrolidine-2-carboxamide] (X1-AP[Aib]V-NMe2) has an IC50 [1] of 3.97 µM and an IC50 [2] of 0.379 µM.
